# From patent publication US8987500B2, “4-biphenyl-substituted pyrazolidin-3,5-dione derivatives” (Bayer CropScience AG, priority 2003, dated 2015)
# Test system: monocotyledonous and dicotyledonous weed and crop plants
# Assay: Herbicidal post-emergence action, Example J
# Type: in vivo
# Conditions: Greenhouse, 320 g a.i./ha, Amaranthus, about 3 weeks
# Procedure: Herbicidal Post-Emergence Action Seeds of monocotyledonous and dicotyledonous weed and crop plants are placed into sandy loam in woodfibre pots, covered with soil and cultivated in a greenhouse under good growth conditions. 2-3 weeks after sowing, the test plants are treated at the one-leaf stage. The test compounds formulated as wettable powders (WP) are, in various dosages with a water application rate of 600 l/ha (converted), with 0.2% of wetting agent added, sprayed onto the green parts of the plants. After the test plants have been kept in the greenhouse under optimum growth conditions for about 3 weeks, the effect of the preparations is rated visually in comparison to untreated controls (herbicidal effect in percent (%): 100% effect=plants have died, 0% effect=like control plants).
row,Structure (SMILES),"herbicidal effect in percent, Amaranthus [%]"
1,COc1cccc(-c2ccc(C)c(-c3c(O)n4n(c3=O)CCCC4)c2)c1 [Example I-1-a-22],70

# Same assay, conditions: Greenhouse, 320 g a.i./ha, Avena fatua, about 3 weeks
row,Structure (SMILES),"herbicidal effect in percent, Avena fatua [%]"
1,Cc1ccc(-c2ccc(C(F)(F)F)cc2)cc1-c1c(OC(=O)C(C)(C)C)n2n(c1=O)CCCC2 [Ex. I-1-b-20],80
2,CCOC(=O)Oc1c(-c2cc(-c3ccc(C(F)(F)F)cc3)ccc2C)c(=O)n2n1CCCC2 [Ex. I-1-c-19],70
3,Cc1ccc(-c2cc(Cl)ccc2Cl)cc1-c1c(O)n2n(c1=O)CCCC2 [Example I-1-a-12],80

# Same assay, conditions: Greenhouse, 320 g a.i./ha, Lolium, about 3 weeks
row,Structure (SMILES),"herbicidal effect in percent, Lolium [%]"
1,Cc1ccc(-c2ccc(C(F)(F)F)cc2)cc1-c1c(OC(=O)C(C)(C)C)n2n(c1=O)CCCC2 [Ex. I-1-b-20],80
2,CCOC(=O)Oc1c(-c2cc(-c3ccc(C(F)(F)F)cc3)ccc2C)c(=O)n2n1CCCC2 [Ex. I-1-c-19],80
3,Cc1ccc(-c2cc(Cl)ccc2Cl)cc1-c1c(O)n2n(c1=O)CCCC2 [Example I-1-a-12],70
4,COc1cccc(-c2ccc(C)c(-c3c(O)n4n(c3=O)CCCC4)c2)c1 [Example I-1-a-22],100

# Same assay, conditions: Greenhouse, 320 g a.i./ha, Setaria, about 3 weeks
row,Structure (SMILES),"herbicidal effect in percent, Setaria [%]"
1,Cc1ccc(-c2ccc(C(F)(F)F)cc2)cc1-c1c(OC(=O)C(C)(C)C)n2n(c1=O)CCCC2 [Ex. I-1-b-20],90
2,CCOC(=O)Oc1c(-c2cc(-c3ccc(C(F)(F)F)cc3)ccc2C)c(=O)n2n1CCCC2 [Ex. I-1-c-19],100
3,Cc1ccc(-c2cc(Cl)ccc2Cl)cc1-c1c(O)n2n(c1=O)CCCC2 [Example I-1-a-12],70
4,COc1cccc(-c2ccc(C)c(-c3c(O)n4n(c3=O)CCCC4)c2)c1 [Example I-1-a-22],90

# Test system: greenhouse red spider mite (Tetranychus urticae)
# Assay: Tetranychus test (OP-resistant/spray treatment), Example G
# Type: in vivo
# Conditions: Tetranychus urticae (OP-resistant), bean leaf discs, spray treatment, 500 g/ha
# Procedure: Tetranychus Test (OP-Resistant/Spray Treatment)
# (§1) To produce a suitable preparation of active compound, 1 part by weight of active compound is mixed with the stated amounts of solvents and emulsifier, and the concentrate is diluted with emulsifier-containing water to the desired concentration.
# Discs of bean leaves (Phaseolus vulgaris) which are infested by all stages of the greenhouse red spider mite (Tetranychus urticae) are sprayed with a preparation of active compound of the desired concentration.
# After the desired period of time, the activity in % is determined 100% means that all spider mites have been killed; 0% means that none of the spider mites have been killed.
row,Structure (SMILES),Kill rate in % after 5d [%]
1,CCOC(=O)Oc1c(-c2cc(-c3ccc(F)cc3F)ccc2C)c(=O)n2n1CCCC2 [Ex. I-1-c-15],100
2,CCOC(=O)Oc1c(-c2cc(-c3ccc(F)c(Cl)c3)ccc2C)c(=O)n2n1CCCC2 [Ex. I-1-c-17],100

# Test system: Meloidogyne incognita
# Assay: Meloidogyne test, Example C
# Type: in vivo
# Conditions: Table C, 20 ppm active compound, nematicidal effect by formation of galls
# Procedure: Meloidogyne Test [table] To produce a suitable preparation of active compound, 1 part by weight of active compound is mixed with the stated amounts of solvent, and the concentrate is diluted with water to the desired concentration. Containers are filled with sand, solution of active compound, Meloidogyne incognita egg/larvae suspension and lettuce seeds. The lettuce seeds germinate and the plants develop. On the roots, galls are formed. After the desired period of time, the nematicidal effect is determined in % by the formation of galls. 100% means that no galls have been found; 0% means that the number of galls on the treated plants corresponds to that of the untreated control.
row,Structure (SMILES),Effect in % after 14d [%]
1,CCOC(=O)Oc1c(-c2cc(-c3ccc(F)cc3)ccc2C)c(=O)n2n1CCOCC2 [Ex. I-2-c-6],90

# Test system: larvae of the mustard beetle (Phaedon cochleariae)
# Assay: Phaedon test (spray treatment), Example E
# Type: in vivo
# Conditions: Table E, 500 g/ha active compound
# Procedure: (§2) Phaedon Test (Spray Treatment) [table] To produce a suitable preparation of active compound, 1 part by weight of active compound is mixed with the stated amounts of solvents and emulsifier, and the concentrate is diluted with emulsifier-containing water to the desired concentration. Discs of Chinese cabbage (Brassica pekinensis) are sprayed with a preparation of active compound of the desired concentration and, after they have dried, populated with larvae of the mustard beetle (Phaedon cochleariae). After the desired period of time, the activity in % is determined 100% means that all beetle larvae have been killed; 0% means that none of the beetle larvae have been killed.
row,Structure (SMILES),Kill rate in % after 7d [%]
1,CCOC(=O)Oc1c(-c2cc(-c3ccc(F)cc3F)ccc2C)c(=O)n2n1CCCC2 [Ex. I-1-c-15],100

# Test system: caterpillars of the army worm (Spodoptera frugiperda)
# Assay: Spodoptera frugiperda test (spray treatment), Example F
# Type: in vivo
# Conditions: maize leaf discs, 500 g/ha
# Procedure: as §2, with “Spodoptera frugiperda” for “Phaedon”, “maize leaves (Zea mays)” for “Chinese cabbage (Brassica pekinensis)”, “caterpillars” for “larvae”, “army worm (Spodoptera frugiperda).” for “mustard beetle (Phaedon cochleariae).”, “caterpillars” for “beetle larvae”
row,Structure (SMILES),Kill rate in % after 7d [%]
1,Cc1ccc(-c2ccc(Cl)cc2Cl)cc1-c1c(OC(=O)C(C)(C)C)n2n(c1=O)CCCC2 [Ex. I-1-b-11],100
2,Cc1ccc(-c2ccc(F)c(Cl)c2)cc1-c1c(OC(=O)C(C)(C)C)n2n(c1=O)CCCC2 [Ex. I-1-b-17],100
3,CCOC(=O)Oc1c(-c2cc(-c3ccc(F)c(Cl)c3)ccc2C)c(=O)n2n1CCCC2 [Ex. I-1-c-17],83
4,Cc1ccc(-c2ccc(F)cc2F)cc1-c1c(OC(=O)C(C)(C)C)n2n(c1=O)CCOCC2 [Ex. I-2-b-15],100

# Test system: green peach aphid (Myzus persicae)
# Assay: Myzus test (spray treatment), Example D
# Type: in vivo
# Conditions: Table D, 100 g/ha active compound
# Procedure: Myzus Test (Spray Treatment)
# as §1
# Discs of Chinese cabbage (Brassica pekinensi), which are infested by all stages of the green peach aphid (Myzus persicae) are sprayed with a preparation of active compound of the desired concentration.
# After the desired period of time, the activity in % is determined 100% means that all aphids have been killed; 0% means that none of the aphids have been killed.
row,Structure (SMILES),Kill rate in % after 5d [%]
1,Cc1ccc(-c2ccc(F)cc2)cc1-c1c(OC(=O)C2CC2)n2n(c1=O)CCCC2 [Ex. I-1-b-33],100
2,CCOC(=O)Oc1c(-c2cc(-c3ccc(F)cc3)ccc2C)c(=O)n2n1CCOCC2 [Ex. I-2-c-6],100

# Same assay, conditions: Table D, 500 g/ha active compound
row,Structure (SMILES),Kill rate in % after 5d [%]
1,Cc1ccc(-c2ccc(Cl)cc2Cl)cc1-c1c(OC(=O)C(C)(C)C)n2n(c1=O)CCCC2 [Ex. I-1-b-11],100
2,Cc1ccc(-c2cc(Cl)cc(Cl)c2)cc1-c1c(OC(=O)C(C)(C)C)n2n(c1=O)CCCC2 [Ex. I-1-b-14],100
3,Cc1ccc(-c2ccc(F)c(Cl)c2)cc1-c1c(OC(=O)C(C)(C)C)n2n(c1=O)CCCC2 [Ex. I-1-b-17],90
4,Cc1ccc(-c2cccc([N+](=O)[O-])c2)cc1-c1c(OC(=O)C(C)(C)C)n2n(c1=O)CCCC2 [Ex. I-1-b-26],100
5,Cc1ccc(-c2ccc(C(C)C)cc2)cc1-c1c(OC(=O)C(C)(C)C)n2n(c1=O)CCCC2 [Ex. I-1-b-30],100
6,CCOC(=O)Oc1c(-c2cc(-c3ccc(F)cc3F)ccc2C)c(=O)n2n1CCCC2 [Ex. I-1-c-15],100
7,Cc1ccc(-c2ccc(Cl)c(Cl)c2)cc1-c1c(OC(=O)C(C)(C)C)n2n(c1=O)CCOCC2 [Ex. I-2-b-13],100
8,Cc1ccc(-c2ccc(F)cc2F)cc1-c1c(OC(=O)C(C)(C)C)n2n(c1=O)CCOCC2 [Ex. I-2-b-15],100
9,COc1ccccc1-c1ccc(C)c(-c2c(OC(=O)C(C)(C)C)n3n(c2=O)CCOCC3)c1 [Ex. I-2-b-21],100
10,Cc1ccc(-c2ccc(C(C)C)cc2)cc1-c1c(OC(=O)C(C)(C)C)n2n(c1=O)CCOCC2 [Ex. I-2-b-30],100
11,Cc1ccc(-c2ccc(Cl)cc2)cc1-c1c(OC(=O)C(C)C)n2n(c1=O)CCOCC2 [Ex. I-2-b-31],100
12,CCOC(=O)Oc1c(-c2cc(-c3cc(F)ccc3F)ccc2C)c(=O)n2n1CCOCC2 [Ex. I-2-c-16],100
13,Cc1cc(C)c(-c2c(O)n3n(c2=O)CCOCC3)c(C)c1-c1ccc(F)cc1 [Example I-2-a-32],90
